Consider 2 molecules from patent publication US20250170133A1, “PHARMACEUTICAL COMBINATIONS AND METHODS OF USE OF AMINO-PYRROLOPYRIMIDINONE COMPOUND” (Merck Sharp & Dohme LLC, priority 2022, published 2025).

For data set [1], the system named is BCL-2 and BCL-xL. The data set is described as follows: BH3 profiling of primary CLL cells from nemtabrutinib treated patients (cytochrome c release). The class given is cell-based, human. To be noted: samples from 3 nemtabrutinib treated patients, co-cultured with NK Tert stromal cells. From the text:
For FIG. 1F, primary CLL cells from nemtabrutinib treated patients were co-cultured with NK Tert stromal cells before performing BH3 profiling using BIM, BAD, MS-1, Y4ek, and PUMA2A peptides. Baseline cytochrome c release measured in DMSO treated cells has been subtracted from all test conditions and controls presented. Cytochrome c release in response to interaction with BIM, BAD, and Y4ek peptides indicates cellular dependency on BCL-2 and BCL-xL. A linear mixed effect model was used to analyze raw data and p values were adjusted for multiple comparisons using Tukey's method. All statistics represented are in comparison to DMSO treated control (*, p<0.05, **, p<0.01, ***, p<0.001).

Data set [2] concerns Primary CLL cells. The data set is described as follows: Primary CLL cell viability by flow cytometry following Annexin V/PI staining. The data set is classed as cell-based, human. The note with it: BTKi 1 μM added to venetoclax 5 nM; ibrutinib washed out after 1 hr; total incubation 24 hr. How it is done:
Cell viability was assessed by flow cytometry following Annexin V/PI staining. Data are normalized to DMSO control. A linear mixed effect model was used to analyze raw data and p values were adjusted for multiple comparisons using Tukey's method (*, p<0.05, **, pS0.01, ***, pS0.001).
(In general: In flow cytometry, cells or beads pass a laser one at a time.)

Data set [3] relates to ERK phosphorylation. The data set is described as follows: Immunoblot of anti-IgM stimulated primary CLL cells: pERK. The class given is cell-based, human. To be noted: nemtabrutinib vs ibrutinib (1 μM), 24 hr, anti-IgM 15 min, normalized to GAPDH. How it is done:
The effects of combining venetoclax and BTKi's on BCR signaling can be seen in FIG. 1B. […] Cells were stimulated with 10 μg plate-bound anti-IgM for 15 min before collection of whole cell lysate and analysis using SDS-PAGE.
For FIG. 1C to IE, all immunoblots of primary CLL patient samples were quantified using densitometry software (AlphaView). Protein levels (FIG. 1C: pBTK, FIG. 1D: pERK, FIG. 1E: MCL-1) normalized to GAPDH loading control are reported as fold change over vehicle control. A linear mixed effect model was used to analyze raw data normalized to GAPDH loading control and p values were adjusted for multiple comparisons using Tukey's method (*, p<0.05, ** p<0.01, ***, p<0.001).
In general terms: Immunoblotting shows a protein as a band on a membrane.

Data set [4] relates to BTK's downstream targets. To be noted: cited from earlier work.
For data set [5], the system named is Eμ-TCL1 adoptive transfer CLL mouse model. As to the kind of experiment: Eμ-TCL1 adoptive transfer CLL mouse model, survival. The class given is in vivo, C57BL/6NTac mice. To be noted: daily oral gavage; venetoclax 100 mg/kg, nemtabrutinib 75 mg/kg, ibrutinib 25 mg/kg; 48 mice with BCR-dependent disease. From the text:
(Bichi R, et al. Proc Natl Acad Sci USA. 2002; 99(10):6955-60). For FIG. 2A, splenocytes from a Eμ-TCL1 donor mouse were engrafted into 93 C57BL/6NTac mice via tail vein injection. Recipient mice were randomly enrolled into treatment groups after developing CD5+CD19+ disease as assessed by flow cytometry of peripheral blood. […] Due to the large study size, splenocytes from multiple E-TCL1 donors were needed to engraft C57BL/6NTac mice. Splenocytes from 4 donors were engrafted into groups of 48, 25, 17, and 3 recipient mice, respectively.
Peripheral blood disease progression was monitored weekly via flow cytometry and was reported as % CD5+CD19+ of CD45+ cells. (FIG. 2B). […] The survival differences of 48 mice engrafted with splenocytes from a single donor with BCR-dependent disease were assessed.

Data set [6] deals with BTK^Y223 autophosphorylation. The data set is described as follows: Immunoblot of anti-IgM stimulated primary CLL cells: pBTK. The data set is classed as cell-based, human. To be noted: ibrutinib (1 μM), 24 hr, anti-IgM 15 min, normalized to GAPDH.

In the case of `O=C(c1ccc(Oc2ccccc2)cc1Cl)c1c[nH]c2ncnc(N[C@@H]3CC[C@@H](CO)OC3)c12` [nemtabrutinib], the “cytochrome c release in response to BIM, BAD and Y4ek peptides” value in data set [1] was “maintain dependence on BCL2 and BCL-xL”. In addition, the “increase in cytotoxicity compared to venetoclax alone” value in data set [2] came out at 10%. For the same molecule, the ERK phosphorylation result in data set [3] is on record as “inhibited to a more significant degree”. For the same molecule, the “inhibition of BTK's downstream targets compared to ibrutinib” value in data set [4] is listed as “greater inhibition”. In data set [5], the median survival came to 81.5 days. Also, the “autophosphorylation of BTK^Y223 vs stimulated vehicle” value in data set [6] is given as “significantly inhibited”.

As to `CC1(C)CCC(CN2CCN(c3ccc(C(=O)NS(=O)(=O)c4ccc(NCC5CCOCC5)c([N+](=O)[O-])c4)c(Oc4cnc5[nH]ccc5c4)c3)CC2)=C(c2ccc(Cl)cc2)C1` [venetoclax, reference compound], the median survival in data set [5] was found to be 34.5 days.
